Reference: article PMC7011792 (Journal of Enzyme Inhibition and Medicinal Chemistry, 2017)
Like-named read-outs stand apart in the source and are kept apart here.

Experiments:
[1] = target: T1, AChE (EC 3.1.1.7) from human (Homo sapiens, UniProt P22303); experiment: Human AChE inhibition, Ellman's method; format: biochemical; details: for IC50: huAChE, mean ± SEM; for Selectivity index (SI) = BuChE IC50/AChE IC50, human enzymes: huBuChE IC50 / huAChE IC50
T1 construct: purchased Sigma-Aldrich C1682
T1 sequence (P22303 32-614): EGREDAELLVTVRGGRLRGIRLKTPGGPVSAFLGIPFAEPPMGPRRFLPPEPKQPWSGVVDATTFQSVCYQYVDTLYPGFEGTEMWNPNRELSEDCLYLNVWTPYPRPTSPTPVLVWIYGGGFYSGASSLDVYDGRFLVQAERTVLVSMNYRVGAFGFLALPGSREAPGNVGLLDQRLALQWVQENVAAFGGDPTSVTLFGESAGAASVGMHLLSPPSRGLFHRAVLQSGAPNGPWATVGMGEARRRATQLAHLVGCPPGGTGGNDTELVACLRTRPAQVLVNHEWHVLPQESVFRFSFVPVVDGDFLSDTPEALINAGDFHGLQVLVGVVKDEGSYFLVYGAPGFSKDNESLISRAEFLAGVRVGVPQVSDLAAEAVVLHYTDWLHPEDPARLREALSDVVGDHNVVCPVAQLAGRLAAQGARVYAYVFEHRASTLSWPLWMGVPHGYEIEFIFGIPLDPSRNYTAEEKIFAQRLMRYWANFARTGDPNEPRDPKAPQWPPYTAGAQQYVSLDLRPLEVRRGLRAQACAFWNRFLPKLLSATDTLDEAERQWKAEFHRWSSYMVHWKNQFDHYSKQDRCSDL
Method: (§1) AChE (EC 3.1.1.7, Type VI-S, from electric eel, C3389; from human, C1682) and BuChE (EC 3.1.1.8, from equine serum, C0663; from human, B4186), 5,5'-dithiobis (2-nitrobenzoic acid) (DTNB, D218200), acetylthiocholine iodide (ATC, A5751), and butyrylthiocholine iodide (BTC, B3253) were obtained from Sigma-Aldrich (St. Louis, MO).
(§2) The inhibitory effects of the synthesised compounds in this paper were evaluated according to our previously reported method. Briefly, AChE/BuChE stock solution was diluted to give 2.5 units/mL (for eeAChE, eqBuChE, and huAChE) or 0.5 units/mL for huBuChE. ATC/BTC iodide solution (0.075 M) was prepared in deionised water. DTNB solution (0.01 M) was prepared using water containing 0.15% (w/v) sodium bicarbonate. The assay buffer was prepared as follows: potassium dihydrogen phosphate (1.36 g, 10 mmol) was dissolved in 100 ml of water. The pH of the solution was then adjusted to 8.0 ± 0.1 with KOH. Stock solutions of the test samples were dissolved in ethanol to give a final concentration of 10^−4 M when diluted to the final volume of 3.32 ml. For each compound, a dilution series of at least five different concentrations (normally 10^−5–10^−9 M) were prepared.
(§3) For measurement, a cuvette containing 3.0 ml of phosphate buffer, 100 µL of AChE or BuChE, 100 µL of DTNB, and 100 µL of the test compound solution were added in sequence. The reaction was initiated after adding 20 µL of ATC or BTC, and the solution was mixed immediately. Two minutes (eeAChE and eqBuChE) or 15 min (huAChE and huBuChE) after ATC or BTC addition, the absorption was measured at 25 °C (eeAChE and eqBuChE) or 37 °C (huAChE and huBuChE) at 412 nm, using a Shimadzu 160 spectrophotometer. For the reference value, 100 µL of water replaced the test compound solution. For the blank control, additionally 100 µL of water replaced the enzyme solution. The measurement for each concentration was assayed in triplicate. GraphPad Prism 5 was used for data processing. The inhibition curve was fitted by plotting percentage enzyme activity (100% for the reference) versus logarithm of test compound concentration. The IC50 values were calculated according to the curve, and the data were shown in mean ± SEM.

[2] = target: T2, Aβ1–42 (Homo sapiens, UniProt P05067); experiment: Inhibition of self-induced Aβ1–42 aggregation (Thioflavin T assay); format: biochemical; details: compound 25 μM, 24 h, read-out: Inhibitory rate on self-induced Aβ1-42 aggregation
T2 construct: aliquots of 2.0 µL of Aβ1–42 (AS-64129–05 Anaspec Inc.); purchased Anaspec Inc. AS-64129–05
T2 sequence (P05067 672-713): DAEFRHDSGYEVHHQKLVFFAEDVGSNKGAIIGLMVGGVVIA
Method: Inhibitory effects of the compounds on self-induced Aβ1–42 aggregation were evaluated using a Thioflavin T (ThT)-(T3516, Sigma-Aldrich, St. Louis, MO) binding assay according to the previously reported method. […] The Aβ1–42 and the test sample solutions were incubated for 24 h at the room temperature.
The inhibitory rate of Aβ1–42 self-induced aggregation was calculated according to the following equation: (1-IFi/IFc) × 100%. IFi and IFc were the fluorescence intensities in the presence and absence of inhibitors, respectively, after subtracting the background fluorescence of the 5 mM Thioflavin T solution. Each measurement was repeated in triplicate. The inhibitory rate of the test compound was shown in mean ± SD.

[3] = system: ICR mice; experiment: Morris water maze test, scopolamine-induced cognitive impairment; details: for Latency to target (second), Day 5 / Latency to target (second), Day 6 / Latency to target (second), Day 7 / Latency to target (second), Day 8 / Latency to target (second), Day 9: learning and training, oral, plus scopolamine; for Latency to target (second), Day 5 / Latency to target (second), Day 6 / Latency to target (second), Day 7 / Latency to target (second), Day 8 / Latency to target (second), Day 9 / Latency to Target: ICR mice; for Latency to Target: probe trial, oral administration plus scopolamine (1 mg/kg ip), mean ± SEM, n = 6; for trajectory in the Morris water maze test: scopolamine-impaired ICR mice, compared to tacrine group
[4] = target: T3, AChE (EC 3.1.1.7) from electric eel (Electrophorus electricus, UniProt O42275); experiment: biochemical; details: for IC50: AChE from electric eel, mean ± SEM of three experiments; for Selectivity index (SI) = BuChE IC50/AChE IC50: eqBuChE IC50 / eeAChE IC50
T3 construct: purchased Sigma-Aldrich C3389
T3 sequence (O42275 24-633): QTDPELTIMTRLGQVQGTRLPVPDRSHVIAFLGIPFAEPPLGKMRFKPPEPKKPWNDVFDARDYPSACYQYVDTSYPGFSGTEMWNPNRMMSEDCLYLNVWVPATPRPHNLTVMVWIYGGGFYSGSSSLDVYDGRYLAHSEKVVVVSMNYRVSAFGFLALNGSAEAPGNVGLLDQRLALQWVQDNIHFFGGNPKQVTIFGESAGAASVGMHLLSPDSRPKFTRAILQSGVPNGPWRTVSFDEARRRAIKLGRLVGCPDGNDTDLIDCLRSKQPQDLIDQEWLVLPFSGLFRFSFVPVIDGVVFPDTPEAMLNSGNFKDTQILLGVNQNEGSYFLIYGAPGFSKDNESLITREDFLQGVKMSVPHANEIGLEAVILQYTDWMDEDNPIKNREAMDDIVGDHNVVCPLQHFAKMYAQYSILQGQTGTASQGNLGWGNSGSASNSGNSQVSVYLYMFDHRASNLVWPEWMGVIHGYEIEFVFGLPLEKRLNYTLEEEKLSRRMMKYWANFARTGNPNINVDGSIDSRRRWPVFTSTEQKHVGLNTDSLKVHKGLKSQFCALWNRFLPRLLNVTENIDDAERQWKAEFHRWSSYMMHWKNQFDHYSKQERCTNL
Method: as §1
as §2, with “Briefly, AChE/BuChE stock solution was diluted to give 2.5 units/mL (for eeAChE, eqBuChE, and huAChE) or 0.5 units/mL for huBuChE.” left out, “DTNB solution (0.01 M) was prepared using water containing 0.15% (w/v) sodium bicarbonate.” left out
as §3, with “Two minutes (eeAChE and eqBuChE) or 15 min (huAChE and huBuChE) after ATC or BTC addition, the absorption was measured at 25 °C (eeAChE and eqBuChE) or 37 °C (huAChE and huBuChE) at 412 nm, using a Shimadzu 160 spectrophotometer.” left out
(§4) The inhibitory effects on ChEs of all the target compounds were determined according to Ellman’s method. AChE from electrophorus electricus (eeAChE) and BuChE from equine serum (eqBuChE) were used in the assays.

[5] = target: T4, BuChE (EC 3.1.1.8) from human (Homo sapiens, UniProt P06276); experiment: Human BuChE inhibition, Ellman's method; format: biochemical; details: huBuChE; mean ± SEM
T4 construct: purchased Sigma-Aldrich B4186
T4 sequence (P06276 29-602): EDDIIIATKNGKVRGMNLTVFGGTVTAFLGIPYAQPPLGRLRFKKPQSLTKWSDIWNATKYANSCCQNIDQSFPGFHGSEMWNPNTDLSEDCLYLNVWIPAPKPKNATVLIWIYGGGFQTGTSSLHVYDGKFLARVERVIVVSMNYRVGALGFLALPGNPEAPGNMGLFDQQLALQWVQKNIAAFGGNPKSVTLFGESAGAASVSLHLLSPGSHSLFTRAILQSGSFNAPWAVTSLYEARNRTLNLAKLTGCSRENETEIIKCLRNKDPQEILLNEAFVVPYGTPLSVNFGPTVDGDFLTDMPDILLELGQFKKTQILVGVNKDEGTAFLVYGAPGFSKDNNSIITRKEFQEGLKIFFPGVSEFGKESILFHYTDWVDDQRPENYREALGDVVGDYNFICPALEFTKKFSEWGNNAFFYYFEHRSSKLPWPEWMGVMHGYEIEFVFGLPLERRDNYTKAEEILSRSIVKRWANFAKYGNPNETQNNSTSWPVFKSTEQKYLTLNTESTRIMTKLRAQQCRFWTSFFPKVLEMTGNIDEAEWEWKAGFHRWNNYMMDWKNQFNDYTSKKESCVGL
Method: as §1, §2
as §3, with “The inhibition curve was fitted by plotting percentage enzyme activity (100% for the reference) versus logarithm of test compound concentration.” left out

[6] = system: ICR mice; details: for ALT (U/L) / AST (U/L): mice serum, n = 6
Method: The activity of AST and ALT, two indicators of liver damage, was determined using corresponding assay kit (EF551 and EF550 for ALT, EH027, and EF548 for AST, Wako, Japan).
One hour after the collection of retrobulbar blood, mice were sacrificed and livers were harvested for morphological studies by using immunohistochemical method. Two 3 mm sections of each liver extending from the hilus to the margin of the left lateral lobe were isolated by Ultra-Thin Semiautomatic Microtome (Leica RM2245, Germany) and immediately placed in 10% buffered formaldehyde, fixed for two days, and embedded together in one paraffin block by using Paraffin Embedding Station (Leica EG1150H, Germany). Subsequently, 5 µm sections were prepared from these paraffin blocks. They were deparaffinated and stained with hematoxylin and eosin or by means of the periodic acid-Schiff procedure for glycogen.

[7] = target: T5, BuChE (EC 3.1.1.8) from horse serum (Equus caballus, UniProt P81908); experiment: biochemical; format: biochemical; details: BuChE from horse serum; mean ± SEM of three experiments
T5 construct: purchased Sigma-Aldrich C0663; host or cells: equine serum
T5 sequence (P81908 whole entry): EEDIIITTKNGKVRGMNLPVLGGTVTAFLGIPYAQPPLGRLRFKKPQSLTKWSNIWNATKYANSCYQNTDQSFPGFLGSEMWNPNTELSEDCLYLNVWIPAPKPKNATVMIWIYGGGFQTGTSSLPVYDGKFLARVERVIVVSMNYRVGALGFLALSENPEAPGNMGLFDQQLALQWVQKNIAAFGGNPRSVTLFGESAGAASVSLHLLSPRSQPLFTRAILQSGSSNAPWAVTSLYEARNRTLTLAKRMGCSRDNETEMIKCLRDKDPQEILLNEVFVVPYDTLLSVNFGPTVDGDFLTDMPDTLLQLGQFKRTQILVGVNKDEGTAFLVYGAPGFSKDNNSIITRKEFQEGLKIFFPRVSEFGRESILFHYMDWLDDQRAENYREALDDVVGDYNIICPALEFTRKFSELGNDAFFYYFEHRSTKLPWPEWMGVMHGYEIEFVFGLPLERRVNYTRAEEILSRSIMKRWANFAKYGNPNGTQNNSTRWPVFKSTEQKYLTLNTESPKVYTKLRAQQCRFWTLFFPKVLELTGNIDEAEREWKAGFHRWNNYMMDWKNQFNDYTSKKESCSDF
Method: as §1
as §2, with “Briefly, AChE/BuChE stock solution was diluted to give 2.5 units/mL (for eeAChE, eqBuChE, and huAChE) or 0.5 units/mL for huBuChE.” left out, “DTNB solution (0.01 M) was prepared using water containing 0.15% (w/v) sodium bicarbonate.” left out
as §3, with “Two minutes (eeAChE and eqBuChE) or 15 min (huAChE and huBuChE) after ATC or BTC addition, the absorption was measured at 25 °C (eeAChE and eqBuChE) or 37 °C (huAChE and huBuChE) at 412 nm, using a Shimadzu 160 spectrophotometer.” left out
as §4

[8] = 22 h after ig administration, 151.5 µmol/kg
[9] = 36 h after ig administration, 151.5 µmol/kg

`O=C(/C=C/c1ccc(Cl)cc1)NCCCCCCNc1c2c(nc3ccccc13)CCCC2` [Compound 27, (E)-3-(4-chlorophenyl)-N-(6-((1,2,3,4-tetrahydroacridin-9-yl)amino)hexyl)acrylamide] was tested, and the IC50 [1] was 16.5 nM, the “Selectivity index (SI) = BuChE IC50/AChE IC50, human enzymes” value [1] was 0.3 and the inhibition at 25 µM [2] was 42.2%. For the same compound, the “Latency to target (second), Day 5” value [3] was 57.1 ± 6.8 s, the “Latency to target (second), Day 6” value [3] was 41.5 ± 5.0 s and the “Latency to target (second), Day 7” value [3] was 39.2 ± 4.3 s. The “Latency to target (second), Day 8” value [3] was 27.6 ± 2.5 s, the “Latency to target (second), Day 9” value [3] was 28.3 ± 1.7 s and the “Latency to Target” value [3] was 25.6 ± 1.8 s. For the same compound, the “trajectory in the Morris water maze test” value [3] was “much shortened distances as compared to tacrine group”, the IC50 [4] was 6.9 ± 1.2 nM and the “Selectivity index (SI) = BuChE IC50/AChE IC50” value [4] was 1.9. The IC50 [5] was 5.7 nM, the “morphologic changes in liver” value ([6]; mouse, in vivo) was “did not cause remarkable morphologic changes in liver” and the IC50 [7] was 12.9 ± 1.7 nM.
For `COc1ccc(/C=C/C(=O)NCCCCCCNc2c3c(nc4ccccc24)CCCC3)cc1` [Compound 30, (E)-3-(4-methoxyphenyl)-N-(6-((1,2,3,4-tetrahydroacridin-9-yl)amino)hexyl)acrylamide], the IC50 [1] was 15.3 nM, the “Selectivity index (SI) = BuChE IC50/AChE IC50, human enzymes” value [1] was 0.5 and the inhibition at 25 µM [2] was 34.6%. For the same compound, the “Latency to target (second), Day 5” value [3] was 59.1 ± 7.0 s, the “Latency to target (second), Day 6” value [3] was 47.3 ± 6.6 s and the “Latency to target (second), Day 7” value [3] was 46.4 ± 6.8 s. The “Latency to target (second), Day 8” value [3] was 32.4 ± 5.3 s, the “Latency to target (second), Day 9” value [3] was 33.2 ± 4.0 s and the “Latency to Target” value [3] was 29.4 ± 1.9 s. For the same compound, the “trajectory in the Morris water maze test” value [3] was “much shortened distances as compared to tacrine group”, the IC50 [4] was 3.7 ± 1.5 nM and the “Selectivity index (SI) = BuChE IC50/AChE IC50” value [4] was 6.1. The IC50 [5] was 8 nM, the “morphologic changes in liver” value ([6]; mouse, in vivo) was “did not cause remarkable morphologic changes in liver” and the IC50 [7] was 22.5 ± 5.9 nM.
For `Oc1ccc(/C=C/c2cc(O)cc(O)c2)cc1` [Resveratrol, reference compound], the inhibition at 25 µM [2] was 30.4%.
For `Nc1c2c(nc3ccccc13)CCCC2` [Tacrine, reference compound], the “Latency to target (second), Day 5” value [3] was 69.2 ± 11.0 s, the “Latency to target (second), Day 6” value [3] was 58.3 ± 7.9 s and the “Latency to target (second), Day 7” value [3] was 50.3 ± 6.3 s. For the same compound, the “Latency to target (second), Day 8” value [3] was 37.1 ± 5.1 s, the “Latency to target (second), Day 9” value [3] was 38.2 ± 2.6 s and the “Latency to Target” value [3] was 34.5 ± 1.3 s. The “ALT (U/L)” value ([6]; 8 h after ig administration, 151.5 µmol/kg (tacrine 30 mg/kg, equimolar test compounds)) was 38.0 ± 3.5 U/L, the “AST (U/L)” value ([6]; 8 h after ig administration, 151.5 µmol/kg) was 134.5 ± 9.9 U/L and the “ALT (U/L)” value [6, 8] was 38.7 ± 5.2 U/L. For the same compound, the “AST (U/L)” value [6, 8] was 125.8 ± 16.2 U/L, the “morphologic changes in liver” value ([6]; 36 h after administration, HE staining, compared to control group) was “did not cause remarkable morphologic changes in liver” and the “ALT (U/L)” value [6, 9] was 40.9 ± 3.5 U/L. For the same compound, the “AST (U/L)” value [6, 9] was 138.7 ± 8.5 U/L.
